Key:
[1] = system: relapsed/refractory myeloma patients; conditions: thalidomide alone; cited from earlier work
RPMI-8226 = assay: multiple myeloma cell proliferation, RPMI-8226; type: cell-based; conditions: RPMI-8226, Human multiple myeloma
From the text: (§1) The effect that ezatiostat has on multiple myeloma proliferation is tabulated below (Table 1).

U266B1 = assay: multiple myeloma cell proliferation, U266B1; type: cell-based; conditions: U266B1, Human multiple myeloma
From the text: as §1

ARH77 = assay: multiple myeloma cell proliferation, ARH77; type: cell-based; conditions: ARH-77, ARH77, Human multiple myeloma
From the text: as §1

[2] = system: human RPMI8226 multiple myeloma cell; assay: combination with melphalan, inhibition of multiple myeloma cell proliferation; type: cell-based; conditions: added together with melphalan; RPMI8226 cells; FIG. 1

IC50 (RPMI-8226) [µM] | IC50 (U266B1) [nM] | IC50 (ARH77) [nM] | Structure (SMILES) | partial response rates [1] | synergy with melphalan in inhibiting cell proliferation [2]
 |  |  | O=C1CCC(N2C(=O)c3ccccc3C2=O)C(=O)N1 (centres unmarked) [Thalidomide, thalidomide] | about 30 % of patients | 
33 | 860 | 2230 | CCOC(=O)[C@@H](N)CCC(=O)N[C@@H](CSCc1ccccc1)C(=O)N[C@@H](C(=O)OCC)c1ccccc1 [ezatiostat] |  | demonstrated synergy with melphalan
